# Source: ChEMBL document CHEMBL3817822, “Design and synthesis of pyridine-pyrazole-sulfonate derivatives as potential anti-HBV agents” (Medchemcomm, 2016)
# Assays:
# [1] = Cytotoxicity against human HepG2(2.2.15) cells assessed as reduction in cell viability after 72 hrs by MTS assay; assay type: cell-based; settings: for CC50 at 72 h: HepG2(2.2.15) cells, read-out: TC50; for Activity: hepg2 2.2.15, 72 h
# Hepatitis B virus [2] = test: Antiviral activity against HBV infected in human HepG2(2.2.15) cells assessed as inhibition of HBeAg secretion by enzyme immunoassay; assay type: functional, organism-based
# [3] = Selectivity index, ratio of TC50 for human HepG2(2.2.15) cells to IC50 for HBV infected in human HepG2(2.2.15) cells assessed as inhibition of HBeAg secretion
# [4] = Selectivity index, ratio of TC50 for human HepG2(2.2.15) cells to IC50 for HBV infected in human HepG2(2.2.15) cells assessed as inhibition of viral DNA replication
# Hepatitis B virus [5] = test: Antiviral activity against HBV infected in human HepG2(2.2.15) cells assessed as inhibition of viral DNA replication after 48 hrs by SYBR Green based RT-PCR method; assay type: functional, organism-based; settings: HepG2 2.2.15, 48 h
# [6] = Selectivity index, ratio of TC50 for human HepG2(2.2.15) cells to IC50 for HBV infected in human HepG2(2.2.15) cells assessed as inhibition of HBsAg secretion
# Hepatitis B virus [7] = test: Antiviral activity against HBV infected in human HepG2(2.2.15) cells assessed as inhibition of HBsAg secretion by enzyme immunoassay; assay type: functional, organism-based
Structure (SMILES),CC50 at 72 h [1] [µM],Activity [1],IC50 (Hepatitis B virus [2]) [µM],Selectivity Index [3],Selectivity Index [4],IC50 (Hepatitis B virus [5]) [µM],Selectivity Index [6],IC50 (Hepatitis B virus [7]) [µM]
Cc1ccc(S(=O)(=O)Oc2cc(CSc3ccccn3)[nH]n2)cc1,86.4,Dose-dependent effect,19.4,4.45,6.04,14.3,4.36,19.8
Nc1ccn([C@H]2CS[C@@H](CO)O2)c(=O)n1,352,–,–,–,–,2.09,–,–
O=S(=O)(Oc1cc(CSc2ccccn2)[nH]n1)c1ccc(Br)cc1,52.4,Dose-dependent effect,9.2,5.69,8.63,6.07,0.46,115
O=[N+]([O-])c1ccc(S(=O)(=O)Oc2cc(-c3ccccn3)[nH]n2)cc1,787,Dose-dependent effect,–,–,–,–,6.28,125
O=[N+]([O-])c1ccccc1S(=O)(=O)Oc1cc(-c2ccccn2)[nH]n1,326,Dose-dependent effect,12,27.11,35.46,9.19,43.54,7.48
Cc1ccc(S(=O)(=O)Oc2cc(-c3ccccn3)[nH]n2)cc1,217,Dose-dependent effect,32.3,6.71,6.92,31.3,9.35,23.2
O=S(=O)(Oc1cc(-c2ccccn2)[nH]n1)c1ccccc1,135,Dose-dependent effect,69.5,1.94,2.07,65.3,0.99,137
O=[N+]([O-])c1ccc(S(=O)(=O)Oc2cc(CSc3ccccn3)[nH]n2)cc1,38.2,Dose-dependent effect,5.97,6.41,6.88,5.56,7.97,4.8
COc1ccc(S(=O)(=O)Oc2cc(-c3ccccn3)[nH]n2)cc1,87.5,Dose-dependent effect,23.1,3.79,3.95,22.2,5.69,15.4
O=S(=O)(Oc1cc(CSc2ccccn2)[nH]n1)c1ccc(F)cc1,116,Dose-dependent effect,250,0.46,0.59,197,4.44,26.2
COc1ccc(S(=O)(=O)Oc2cc(CSc3ccccn3)[nH]n2)cc1,90.2,Dose-dependent effect,44.6,2.02,2.37,38.1,6.21,14.5
O=[N+]([O-])c1ccccc1S(=O)(=O)Oc1cc(CSc2ccccn2)[nH]n1,66.2,Dose-dependent effect,9.92,6.68,10.51,6.3,10.6,6.25
O=c1cc(-c2ccccn2)[nH][nH]1,1060,Dose-dependent effect,1370,0.78,0.79,1350,0.77,1380
O=S(=O)(Oc1cc(-c2ccccn2)[nH]n1)c1ccc(F)cc1,254,Dose-dependent effect,82.9,3.06,2.76,92.1,5.53,45.9
CS(=O)(=O)Oc1cc(CSc2ccccn2)[nH]n1,830,Dose-dependent effect,679,1.22,1.12,739,5.17,161
O=S(=O)(Oc1cc(-c2ccccn2)[nH]n1)c1ccc(Br)cc1,809,Dose-dependent effect,–,–,–,–,3.85,210
CS(=O)(=O)Oc1cc(-c2ccccn2)[nH]n1,1060,Dose-dependent effect,–,–,–,–,3.68,287
O=S(=O)(Oc1cc(CSc2ccccn2)[nH]n1)c1ccccc1,103,Dose-dependent effect,20.3,5.09,5.46,18.9,0.68,152
O=c1cc(CSc2ccccn2)[nH][nH]1,1120,Dose-dependent effect,590,1.89,2.13,524,1.37,815
